Data published in patent publication US7910584B2, “3-spiroindolin-2-one derivatives, preparation and therapeutic use thereof” (Sanofi-Aventis, priority 2004, dated 2011).

Molecular target: T1, recombinant human vasopressin V2 receptors (Homo sapiens, UniProt P30518)
T1 construct: expressed in transfected cells; host or cells: CHO cell line (plasma membranes)
Experiment: In vitro binding assay, [3H]-AVP displacement on plasma membranes
Settings: membranes from tissues or CHO cell line expressing recombinant human V2 receptors; 3.5 nM [H3]-AVP; 45 minutes at 25° C.; read-out: IC50 (concentration of product that inhibits 50% of the specific binding)
Procedure: They were in particular tested with regard to their effects.
The affinity of the compounds of the invention for vasopressin V2 receptors was measured in in vitro binding assays, as described in J. Pharmacol. Exp. Ther., (2002), 300, pp. 1122-1130.
Plasma membranes (approximately 20 μg/ml) originating from tissues or the CHO cell line expressing recombinant human vasopressin V2 receptors are incubated for 45 minutes at 25° C. in 200 μl of TRIS-HCl buffer (50 mM; pH 8.2) containing 2 mM of MgCl2, 1 mM of EDTA, 0.1% of BSA, 1 mg/ml of bacitracin and 3.5 nM of [H^3]-AVP. The reaction is stopped by filtration and washing over GF/B filters. The nonspecific binding is determined in the presence of 1 μM of AVP. The compounds of the invention, dissolved beforehand at the concentration of 10^−2 M in DMSO, are tested in a dilution range.
For each concentration, the results are expressed as percentage inhibition of specific binding. An IC50 (concentration of product that inhibits 50% of the specific binding) is determined for each of the products using the “RS1 binding” program (BBN Domain, Cambridge, Mass.).

T1 sequence (P30518 whole entry): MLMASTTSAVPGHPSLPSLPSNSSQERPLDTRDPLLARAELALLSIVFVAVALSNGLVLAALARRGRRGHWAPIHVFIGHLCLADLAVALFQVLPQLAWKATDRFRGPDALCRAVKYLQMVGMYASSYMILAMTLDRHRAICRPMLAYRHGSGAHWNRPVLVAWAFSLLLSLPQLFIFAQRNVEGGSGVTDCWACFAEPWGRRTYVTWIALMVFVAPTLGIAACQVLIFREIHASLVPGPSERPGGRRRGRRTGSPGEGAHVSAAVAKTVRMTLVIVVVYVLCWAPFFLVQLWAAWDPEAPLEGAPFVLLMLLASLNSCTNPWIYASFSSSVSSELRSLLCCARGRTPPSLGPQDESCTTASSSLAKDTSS

IC50: ~7.3 nM
Compound: CCOc1ccc2c(c1)C1(CCC(OCCN3CCOCC3=O)CC1)C(=O)N2S(=O)(=O)c1ccc(C(=O)NC(C)(C)C)cc1OC (stereo not shown)
